# From ChEMBL document CHEMBL5126513 (Eur J Med Chem, 2022)
# Legend:
# [1] = biological target: T1, Protein cereblon/Tyrosine-protein kinase BTK (Homo sapiens, UniProt Q06187+Q96SW2); test: Protac activity at CRBN/BTK in human MINO cells assessed as BTK degradation; assay type: cell-based
# [2] = biological target: T1, Protein cereblon/Tyrosine-protein kinase BTK; test: Protac activity at CRBN (unknown origin)/BTK (unknown origin) assessed as BTK degradation; assay type: protein assay
# [3] = biological target: T2, Tyrosine-protein kinase BTK (Homo sapiens, UniProt Q06187); test: Inhibition of full-length wild-type BTK (unknown origin) measured by HTRF assay
# [4] = biological target: T2, Tyrosine-protein kinase BTK; test: Inhibition of BTK (unknown origin)
# [5] = biological target: T3, Tyrosine-protein kinase TXK (Homo sapiens, UniProt P42681); test: Inhibition of TXK (unknown origin)
# T3 sequence (P42681 whole entry): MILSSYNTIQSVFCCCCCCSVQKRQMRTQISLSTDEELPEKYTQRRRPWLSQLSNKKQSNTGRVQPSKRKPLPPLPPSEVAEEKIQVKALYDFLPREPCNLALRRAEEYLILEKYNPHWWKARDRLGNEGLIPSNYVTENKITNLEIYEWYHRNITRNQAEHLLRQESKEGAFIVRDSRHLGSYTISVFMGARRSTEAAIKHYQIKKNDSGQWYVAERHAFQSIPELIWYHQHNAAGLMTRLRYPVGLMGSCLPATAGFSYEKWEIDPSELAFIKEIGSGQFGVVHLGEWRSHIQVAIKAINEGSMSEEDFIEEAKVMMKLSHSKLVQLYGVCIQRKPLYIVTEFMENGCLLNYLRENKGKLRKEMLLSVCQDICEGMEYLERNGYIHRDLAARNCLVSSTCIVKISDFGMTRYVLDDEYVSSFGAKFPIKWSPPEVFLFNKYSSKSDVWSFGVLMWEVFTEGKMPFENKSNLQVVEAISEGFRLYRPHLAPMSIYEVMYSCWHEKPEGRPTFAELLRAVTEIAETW
# [6] = biological target: Tyrosine-protein kinase Blk (Homo sapiens, UniProt P51451); test: Inhibition of BLK (unknown origin)
# Chain of Tyrosine-protein kinase Blk (P51451 whole entry): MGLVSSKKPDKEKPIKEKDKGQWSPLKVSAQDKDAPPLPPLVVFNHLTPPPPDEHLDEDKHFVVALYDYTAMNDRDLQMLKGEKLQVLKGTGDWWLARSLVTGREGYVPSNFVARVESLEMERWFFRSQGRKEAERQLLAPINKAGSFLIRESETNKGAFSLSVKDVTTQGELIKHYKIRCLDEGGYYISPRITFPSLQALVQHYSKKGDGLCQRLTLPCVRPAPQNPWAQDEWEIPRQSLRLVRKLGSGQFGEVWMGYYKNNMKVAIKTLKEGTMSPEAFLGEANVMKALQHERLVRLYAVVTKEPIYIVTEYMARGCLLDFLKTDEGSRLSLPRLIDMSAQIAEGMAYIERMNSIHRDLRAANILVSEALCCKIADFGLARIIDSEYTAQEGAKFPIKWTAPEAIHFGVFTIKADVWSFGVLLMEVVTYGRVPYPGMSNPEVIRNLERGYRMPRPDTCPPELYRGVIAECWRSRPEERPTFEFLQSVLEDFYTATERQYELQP
# T2 sequence (Q06187 whole entry): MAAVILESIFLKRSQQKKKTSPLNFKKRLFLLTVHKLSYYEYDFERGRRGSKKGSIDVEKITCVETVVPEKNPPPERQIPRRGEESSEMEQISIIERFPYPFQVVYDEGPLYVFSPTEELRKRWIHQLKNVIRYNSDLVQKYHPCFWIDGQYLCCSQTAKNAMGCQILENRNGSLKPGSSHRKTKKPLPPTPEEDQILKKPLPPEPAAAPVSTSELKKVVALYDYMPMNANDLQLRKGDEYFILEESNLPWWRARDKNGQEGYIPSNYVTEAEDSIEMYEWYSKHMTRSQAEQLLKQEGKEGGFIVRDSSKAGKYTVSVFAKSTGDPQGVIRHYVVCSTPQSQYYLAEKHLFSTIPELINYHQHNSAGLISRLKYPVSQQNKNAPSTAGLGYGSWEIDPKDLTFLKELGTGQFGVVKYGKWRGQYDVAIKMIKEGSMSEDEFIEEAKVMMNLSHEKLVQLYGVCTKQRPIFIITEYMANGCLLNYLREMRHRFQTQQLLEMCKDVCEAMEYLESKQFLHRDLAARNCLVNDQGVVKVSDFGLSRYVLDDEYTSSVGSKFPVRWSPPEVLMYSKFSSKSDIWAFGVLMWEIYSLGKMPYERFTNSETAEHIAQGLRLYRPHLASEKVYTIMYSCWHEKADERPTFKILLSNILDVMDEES
# T1 sequence (Q06187 whole entry): as above
# T1 sequence (Q96SW2 whole entry): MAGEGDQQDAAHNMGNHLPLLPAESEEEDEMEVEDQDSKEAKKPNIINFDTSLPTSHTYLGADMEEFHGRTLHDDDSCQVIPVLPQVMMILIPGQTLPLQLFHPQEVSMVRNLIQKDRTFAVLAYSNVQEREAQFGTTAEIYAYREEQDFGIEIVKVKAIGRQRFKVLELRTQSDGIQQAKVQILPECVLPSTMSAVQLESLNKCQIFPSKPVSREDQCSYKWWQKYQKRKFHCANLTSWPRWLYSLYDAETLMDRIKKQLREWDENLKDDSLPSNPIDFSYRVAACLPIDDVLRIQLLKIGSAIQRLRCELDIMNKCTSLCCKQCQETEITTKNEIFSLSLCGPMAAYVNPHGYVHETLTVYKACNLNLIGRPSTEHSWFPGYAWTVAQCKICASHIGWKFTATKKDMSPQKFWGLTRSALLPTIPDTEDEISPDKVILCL
smiles,measurement,setting,value
Nc1ncnc2c1c(-c1ccc(Oc3ccccc3)cc1)nn2[C@@H]1CCCN(C(=O)c2cn(CCOCCOCCOCCCc3ccc4c(c3)CN(C3CCC(=O)NC3=O)C4=O)nn2)C1 (stereo partly specified),DC50,[1],9.2 nM
O=C1CCC(N2C(=O)c3ccc(NCCOCCOCCOCCOCCOCCNC(=O)N[C@H]4CC[C@@H](Nc5ncnc6[nH]cc(C(=O)c7ccc(Oc8ccccc8)cc7Cl)c56)CC4)cc3C2=O)C(=O)N1 (stereo partly specified),DC50,[2],41.9 nM
Cc1cc(Nc2ncc3c(n2)N(C)CN(c2cc(NC(=O)c4cccc(C(F)(F)F)c4)ccc2C)C3)n(C)n1,IC50,[3],10.7 nM
COc1ccc(F)cc1C(=O)NCc1ccc(-c2nn([C@@H](C)C(F)(F)F)c(N)c2C(N)=O)cc1 [PIRTOBRUTINIB],IC50,[4],< 1 nM
CC#CC(=O)N1CC[C@@H](n2c(=O)n(-c3ccc(Oc4ccccc4)cc3)c3c(N)ncnc32)C1 [TIRABRUTINIB],IC50,[5],116 nM
same,IC50,[6],1130 nM
